≈ marks a conversion by molar mass, not a printed value.
What was measured:
Type in all cases: functional
Staphylococcus aureus [1] = assay: Antibacterial activity against ciprofloxacin resistant Staphylococcus aureus assessed as bacterial growth inhibition by broth microdilution assay
Klebsiella pneumoniae [2] = assay: Antibacterial activity against Klebsiella pneumoniae assessed as bacterial growth inhibition by broth microdilution assay
Pseudomonas aeruginosa [3] = assay: Antibacterial activity against Pseudomonas aeruginosa assessed as bacterial growth inhibition by broth microdilution assay
Escherichia coli [4] = assay: Antibacterial activity against Escherichia coli assessed as bacterial growth inhibition by broth microdilution assay
Acinetobacter baumannii = assay: Antibacterial activity against Acinetobacter baumannii assessed as bacterial growth inhibition by broth microdilution assay
Staphylococcus aureus [5] = assay: Antibacterial activity against Staphylococcus aureus ATCC 6538p assessed as bacterial growth inhibition by agar dilution assay
Escherichia coli [6] = assay: Antibacterial activity against Escherichia coli ATCC 25922 assessed as bacterial growth inhibition by agar dilution assay
Enterococcus faecalis = assay: Antibacterial activity against Enterococcus faecalis assessed as zone of inhibition at 50 mg/ml by agar well diffusion assay; details: read-out: IZ
Escherichia coli [7] = assay: Antibacterial activity against Escherichia coli assessed as zone of inhibition at 50 mg/ml by agar well diffusion assay; details: read-out: IZ
[8] = test system: Mycobacterium tuberculosis; assay: Antimycobacterial activity against Mycobacterium tuberculosis H37Rv assessed as zone of inhibition at 50 mg/ml by agar well diffusion assay; details: read-out: IZ
Staphylococcus aureus [9] = assay: Antibacterial activity against Staphylococcus aureus assessed as zone of inhibition at 50 mg/ml by agar well diffusion assay; details: read-out: IZ
Streptococcus pneumoniae = assay: Antibacterial activity against Streptococcus pneumoniae assessed as zone of inhibition at 50 mg/ml by agar well diffusion assay; details: read-out: IZ
[10] = test system: Mycobacterium tuberculosis; assay: Antimycobacterial activity against Mycobacterium tuberculosis H37Rv assessed as bacterial growth inhibition
Staphylococcus aureus [11] = assay: Antibacterial activity against methicillin resistant Staphylococcus aureus assessed as bacterial growth inhibition by microdilution assay
[12] = test system: Mycobacterium tuberculosis; assay: Potency index, ratio of isoniazid MIC to test compound MIC for antimycobacterial activity against Mycobacterium tuberculosis H37Rv assessed as bacterial growth inhibition by broth microdilution assay
Staphylococcus aureus [13] = assay: Potency index, ratio of ciprofloxacin MIC to test compound MIC for antimicrobial activity against Staphylococcus aureus assessed as bacterial growth inhibition by agar cup diffusion assay
[14] = test system: Mycobacterium tuberculosis; assay: Potency index, ratio of rifampicin MIC to test compound MIC for antimycobacterial activity against Mycobacterium tuberculosis H37Rv assessed as bacterial growth inhibition by broth microdilution assay
Staphylococcus aureus [15] = assay: Antibacterial activity against Staphylococcus aureus assessed as bacterial growth inhibition by broth microdilution assay
[16] = test system: Mycobacterium tuberculosis; assay: Antimycobacterial activity against Mycobacterium tuberculosis H37Rv assessed as bacterial growth inhibition by broth microdilution assay
Staphylococcus aureus [17] = assay: Antibacterial activity against methicillin sensitive Staphylococcus aureus assessed as bacterial growth inhibition by two fold microdilution assay
Escherichia coli [18] = assay: Antibacterial activity against Escherichia coli assessed as bacterial growth inhibition by two fold microdilution assay
Staphylococcus aureus [19] = assay: Antibacterial activity against methicillin resistant Staphylococcus aureus assessed as bacterial growth inhibition by two fold microdilution assay
Klebsiella pneumoniae [20] = assay: Antibacterial activity against Klebsiella pneumoniae assessed as bacterial growth inhibition by two fold microdilution assay
Pseudomonas aeruginosa [21] = assay: Antibacterial activity against Pseudomonas aeruginosa MTCC 424 assessed as bacterial growth inhibition measured after 24 hrs by microdilution assay
Staphylococcus aureus [22] = assay: Antibacterial activity against Staphylococcus aureus MLS16 MTCC 2940 assessed as bacterial growth inhibition measured after 24 hrs by microdilution assay
Staphylococcus aureus [23] = assay: Potency index, ratio of ciprofloxacin MIC to test compound MIC for antimicrobial activity against Staphylococcus aureus MTCC 424 assessed as bacterial growth inhibition measured after 24 hrs by microdilution assay
Escherichia coli [24] = assay: Antibacterial activity against Escherichia coli MTCC 1687 assessed as bacterial growth inhibition measured after 24 hrs by microdilution assay
Staphylococcus aureus [25] = assay: Antibacterial activity against Staphylococcus aureus MTCC 737 assessed as bacterial growth inhibition measured after 24 hrs by microdilution assay
Escherichia coli [26] = assay: Potency index, ratio of ciprofloxacin MIC to test compound MIC for antimicrobial activity against Escherichia coli MTCC 1687 assessed as bacterial growth inhibition measured after 24 hrs by microdilution assay
Staphylococcus aureus [27] = assay: Potency index, ratio of ciprofloxacin MIC to test compound MIC for antimicrobial activity against Staphylococcus aureus MLS16 MTCC 2940 assessed as bacterial growth inhibition measured after 24 hrs by microdilution assay

## CCCCC(=O)N(CCNCCNc1ccc(CN2CCN(c3cc4c(cc3F)CC(C(=O)O)=CN4C3CC3)CC2)cc1)CCN(CCN(CCN(CCN(CCN(CCN(CCN(CCN(CCN(CCN(CCN(CCN(CCN(CCN(CCN(CCN(CCN(CCN(CCN(CCN(CCN(CCN(CCN(CCN(CCN(CCN(CCN(CCN(CCN(CCNC(C)=O)C(C)=O)C(C)=O)C(C)=O)C(C)=O)C(C)=O)C(C)=O)C(C)=O)C(C)=O)C(C)=O)C(C)=O)C(C)=O)C(C)=O)C(C)=O)C(C)=O)C(=O)CCCC)C(=O)CCCC)C(=O)CCCC)C(=O)CCCC)C(=O)CCCC)C(=O)CCCC)C(=O)CCCC)C(=O)CCCC)C(=O)CCCC)C(=O)CCCC)C(=O)CCCC)C(=O)CCCC)C(=O)CCCC)C(=O)CCCC)C(=O)CCCC
Staphylococcus aureus [1]
  MIC: 0.62 µg/mL (≈ 0.164 µM)

## Cc1[nH]c(C(=O)Nc2nc3ccc(NC(=O)CCN4CCN(c5cc6c(cc5F)c(=O)c(C(=O)O)cn6C5CC5)CC4)cc3s2)c(Cl)c1Cl
Klebsiella pneumoniae [2]
  MIC: 0.25 µg/mL (≈ 0.344 µM)
Pseudomonas aeruginosa [3]
  MIC: 0.25 µg/mL (≈ 0.344 µM)
Escherichia coli [4]
  MIC: 0.004 µg/mL (≈ 0.0055 µM)
Acinetobacter baumannii
  MIC: 0.25 µg/mL (≈ 0.344 µM)

## Cc1cc(N2CCN(c3cc4c(cc3F)c(=O)c(C(=O)O)cn4C3CC3)CC2)nc(Cl)n1
Staphylococcus aureus [5]
  MIC: 7.4 µg/mL (≈ 16.2 µM)
Escherichia coli [6]
  MIC: 10.5 µg/mL (≈ 22.9 µM)

## CCn1cc(-c2nnc(S(=O)(=O)Cc3ccc(OC)cc3)o2)c(=O)c2cc(F)c(N3CCN(C)CC3)cc21
Enterococcus faecalis
  zone of inhibition at 50000 µg/mL: 26 mm
Escherichia coli [7]
  zone of inhibition at 50000 µg/mL: 26 mm
[8]
  zone of inhibition at 50000 µg/mL: 26 mm
Staphylococcus aureus [9]
  zone of inhibition at 50000 µg/mL: 26 mm
Streptococcus pneumoniae
  zone of inhibition at 50000 µg/mL: 26 mm
[10]
  MIC: 16.2 µg/mL (≈ 29.9 µM)

## COP(=O)(OC)C(c1cc(C(C)(C)C)c(O)c(C(C)(C)C)c1)N1CCN(c2cc3c(cc2F)c(=O)c(C(=O)O)cn3C2CC2)CC1 (stereo not given)
Staphylococcus aureus [11]
  MIC: 0.5 µg/mL

## O=C(CSc1nnc(N2CCN(c3cc4c(cc3F)c(=O)c(C(=O)O)cn4C3CC3)CC2)s1)c1ccc([N+](=O)[O-])cc1
[12]
  Ratio: 3
Staphylococcus aureus [13]
  Ratio: 2
[14]
  Ratio: 2
Staphylococcus aureus [15]
  MIC: 1 µg/mL (≈ 1.64 µM)
[16]
  MIC: 0.5 µg/mL (≈ 0.819 µM)

## O=C(O)c1cn([C@@H]2C[C@@H]2F)c2cc(N3CCN(Cn4nc(-c5ccncc5)n(Cc5ccccc5)c4=S)CC3)c(F)cc2c1=O
Staphylococcus aureus [17]
  MIC: 0.5 µg/mL (≈ 0.794 µM)
Escherichia coli [18]
  MIC: ≤ 0.003 µg/mL
Staphylococcus aureus [19]
  MIC: 0.5 µg/mL (≈ 0.794 µM)
Klebsiella pneumoniae [20]
  MIC: ≤ 0.003 µg/mL

## COc1ccc(-c2cc(-c3c(O)c4ccccc4[nH]c3=O)nc(N)c2C#N)cc1
Pseudomonas aeruginosa [21]
  MIC: 2.34 µg/mL (≈ 6.09 µM)
Staphylococcus aureus [22]
  MIC: 2.34 µg/mL (≈ 6.09 µM)
Staphylococcus aureus [23]
  Ratio: 2
Escherichia coli [24]
  MIC: 2.34 µg/mL (≈ 6.09 µM)
Staphylococcus aureus [25]
  MIC: 2.34 µg/mL (≈ 6.09 µM)
Escherichia coli [26]
  Ratio: 2
Staphylococcus aureus [27]
  Ratio: 2
